Among the data in patent US20100056535A1, “Inhibitors of HIV-1 reverse transcriptase” (Roche Palo Alto LLC, priority 2008, published 2010) are IC50 values, retold here.

Each structure is given as a SMILES string. Like-named read-outs stand apart in the source and are kept apart here.

For test [1], the system named is HXB2-strain of HIV-1 in MT4 cells. In words: Antiviral assay: protection of HIV-1-infected MT4 cells from cell death (MTT). The test is classed as cell-based. As for the experimental part: Anti-HIV-1 antiviral activity was assessed using an adaptation of the method of Pauwels et al. (Pauwels et al., J Virol Methods 1988 20:309-321). The method is based on the ability of compounds to protect HIV-1-infected T lymphoblastoid cells (MT4 cells) from cell-death mediated by the infection. The endpoint of the assay was calculated as the concentration of compound at which the cell viability of the culture was preserved by 50% (‘50% inhibitory concentration’, IC50). The cell viability of a culture was determined by the uptake of soluble, yellow 3-[4,5-dimethylthiazol-2-yl]-2,5-diphenyltetrazolium bromide (MTT) and its reduction to a purple insoluble formazan salt. After solubilization, spectrophotometric methods were employed to measure the amount of formazan product.
MT4 cells were prepared to be in logarithmic-phase growth and a total of 2×10^6 cells infected with the HXB2-strain of HIV-1 at a multiplicity of 0.0001 infectious units of virus per cell in a total volume of between 200-500 microliters. The cells were incubated with virus for one hour at 37° C. before removal of virus. The cells are then washed in 0.01 M phosphate buffered saline, pH 7.2 before being resuspensed in culture medium for incubation in culture with serial dilutions of test compound. The culture medium used was RPMI 1640 without phenol red, supplemented with penicillin, streptomycin, L-glutamine and 10% fetal calf serum (GM10).
Test compounds were prepared as 2 mM solutions in dimethyl sulfoxide (DMSO). Four replicate, serial 2-fold dilutions in GM10 were then prepared and 50 microliters amounts placed in 96-well plates over a final nanomolar concentration range of 625-1.22. Fifty microliters GM10 and 3.5×10^4 infected cells were then added to each well. Control cultures containing no cells (blank), uninfected cells (100% viability; 4 replicates) and infected cells without compound (total virus-mediated cell death; 4 replicates) were also prepared. The cultures were then incubated at 37° C. in a humidified atmosphere of 5% CO2 in air for 5 days.
A fresh solution of 5 mg/mL MTT was prepared in 0.01 M phosphate buffered saline, pH 7.2 and 20 microliters added to each culture. The cultures were further incubated as before for 2 hours. They were then mixed by pipetting up and down and 170 microliters of Triton X-100 in acidified isopropanol (10% v/v Triton X-100 in 1:250 mixture of concentrated HCl in isopropanol). When the formazan deposit was fully solubilized by further mixing, the absorbance (OD) of the cultures was measured at 540 nm and 690 nm wavelength (690 nm readings were used as blanks for artifacts between wells). The percent protection for each treated culture was then calculated from the equation: […]
The IC50 can be obtained from graph plots of percent protection versus log10 drug concentration.

In another test the target is HIV-1 RT (Human immunodeficiency virus type 1 group M subtype B, UniProt P03366). Briefly: Heteropolymer HIV Reverse Transcriptase Assay: Inhibitor IC50 Determination. The test is classed as biochemical. The procedure: Heteropolymer HIV Reverse Transcriptase Assay: Inhibitor IC50 Determination
HIV-1 RT assay was carried out in 96-well Millipore MultiScreen MADVNOB50 plates using purified recombinant enzyme and a poly(rA)/oligo(dT)16 template-primer in a total volume of 50 μL. The assay constituents were 50 mM Tris/HCl, 50 mM NaCl, 1 mM EDTA, 6 mM MgCl2, 5 μM dTTP, 0.15 μCi [^3H] dTTP, 5 μg/ml poly (rA) pre annealed to 2.5 μg/ml oligo (dT)16 and a range of inhibitor concentrations in a final concentration of 10% DMSO. Reactions were initiated by adding 4 nM HIV-1 RT and after incubation at 37° C. for 30 min, they were stopped by the addition of 50 μl ice cold 20% TCA and allowed to precipitate at 4° C. for 30 min. The precipitates were collected by applying vacuum to the plate and sequentially washing with 3×200 μl of 10% TCA and 2×200 μl 70% ethanol. Finally, the plates were dried and radioactivity counted in a Packard TopCounter after the addition of 25 μl scintillation fluid per well. IC50's were calculated by plotting % inhibition versus log10 inhibitor concentrations. Representative IC50 data is depicted in TABLE 2.

[2] abbreviates: Human immunodeficiency virus 1, HXB2, MT4, read-out: IC50 Antiviral wt:fbs:10%.
[3] abbreviates: purified recombinant enzyme, poly(rA)/oligo(dT)16 template-primer, read-out: Polymerase Inhibition IC50.
Setting [4] is: Human immunodeficiency virus 1, HXB2, wild type virus, MT4 cells, 10% fetal calf serum, read-out: IC50 Antiviral wt:fbs:10%.

A word on the IC50: it is the midpoint of a concentration-inhibition curve. As to `N#Cc1cc(Cl)cc(Oc2cc(CCc3nc4ccccc4o3)[nH]c(=O)c2Cl)c1` [Compound I-19, 3-[6-(2-Benzooxazol-2-yl-ethyl)-3-chloro-2-oxo-1,2-dihydro-pyridin-4-yloxy]-5-chloro-benzonitrile], the IC50 in test [1] (setting [2]) came to 6.9 nM; on HIV-1 RT (setting [3]) it was 6.3 nM.
In the case of `N#Cc1cc(Cl)cc(Oc2c(F)c(CCc3ccncc3)[nH]c(=O)c2Br)c1` [Compound I-20, 3-[3-Bromo-5-fluoro-2-oxo-6-(2-pyridin-4-yl-ethyl)-1,2-dihydro-pyridin-4-yloxy]-5-chloro-benzonitrile], the 50% inhibitory concentration (IC50) came out at 4.4 nM in test [1] (setting [2]) and 1.5 nM at HIV-1 RT (setting [3]).
In the case of `C=Cc1c(Oc2cc(Cl)cc(C#N)c2)c(CC)c[nH]c1=O` [II-3, 3-Chloro-5-(5-ethyl-2-oxo-3-vinyl-1,2-dihydro-pyridin-4-yloxy)-benzonitrile], the values for the IC50 (in test [1] (setting [4]); on HIV-1 RT (setting [3])) were 3.3 nM and 5.6 nM, respectively.
As to `CCc1c(C)[nH]c(=O)c(Br)c1Oc1cc(Cl)cc(C#N)c1` [II-6, 3-(3-Bromo-5-ethyl-6-methyl-2-oxo-1,2-dihydro-pyridin-4-yloxy)-5-chloro-benzonitrile], the IC50 in test [1] (setting [4]) was 2.4 nM; on HIV-1 RT (setting [3]) it was 7.3 nM.
On to `N#Cc1cc(Cl)cc(Oc2c(CSCc3ccccc3)c[nH]c(=O)c2Br)c1` [II-18, 3-(5-Benzylsulfanylmethyl-3-bromo-2-oxo-1,2-dihydro-pyridin-4-yloxy)-5-chloro-benzonitrile], for which the 50% inhibitory concentration (IC50) amounted to 4.2 nM in test [1] (setting [4]) and 0.4 nM on HIV-1 RT.
